Test results taken from PMC6801405, “Discovery of 3-Arylquinoxaline Derivatives as Potential Anti-Dengue Virus Agents” (International Journal of Molecular Sciences, 2019).

Assays:
DENV [1] = experiment: DENV RNA levels by RT-qPCR in DENV-infected Huh-7 cells; type: cell-based, dengue virus; details: 0.5, 1, 5 and 10 μM, three days
Text: To further confirm the anti-DENV effect of compound 19a, we treated compound 19a at indicated concentrations in Huh-7 cells for three days.
Total cellular RNA samples were extracted after three days of compound treatment through a Total RNA Miniprep Purification Kit (GeneMark Biolab, Taiwan) following the manufacturer’s instructions, and then transcribed to complementary DNA (cDNA) with Moloney murine leukemia virus (M-MLV) reverse transcriptase (Promega, USA). The levels of DENV-2 replication and COX-2 were analyzed by RT-PCR as described previously with the following specific primers: a forward primer, 5′–[…] AGC–3′, and a reverse primer, 5′–[…]–3′, targeting the DENV-2 NS5 gene 44. DENV-2 and COX-2 RNA levels were normalized to the cellular glyceraldehyde-3-phosphate dehydrogenase (GAPDH) RNA level of each sample.
Figure 2 Inhibition of dengue virus (DENV) RNA expression in DENV-infected Huh-7 cells by 19a. Huh-7 cells were treated with 0.5, 1, 5, and 10 μM 19a for three days. Total RNA was extracted and quantified DENV RNA levels by RT-qPCR. DENV RNA expression was normalized by cellular glyceraldehyde-3-phosphate dehydrogenase (GAPDH) mRNA. Treatment with 0.1% dimethyl sulfoxide (DMSO) served as a mock control. The results are expressed as the means ± standard deviations (SD) of triplicate experiments.

COX-2 expression = experiment: COX-2 protein and mRNA expression in Huh-7 cells (Western blotting, RT-qPCR); type: cell-based, Human; details: 0.5 to 5 μM, vs DMSO
Description: (§1) In a previous study, Lin et al. reported that induction of COX-2 could suppress DENV replication. To determine whether compound 19a had impact on COX-2 protein and mRNA expression in Huh-7 cells, we treated Huh-7 cells with 0.5 to 5 μM of 19a. […] To characterize whether the 19a-mediated downregulation of COX-2 expression and its catalytic activity was involved in the suppression of DENV replication, we overexpressed exogenous COX-2 to evaluate the inhibitory activity of 19a on DENV replication. […] Consistently, the exogenous expression of COX-2 attenuated the inhibitory effect of 19a on the non-structural 2B (NS2B) protein levels, as analyzed by Western blotting.
Huh-7 cells were seeded in 24-well plates at a density of 5 × 10^4 cells per well overnight and treated with indicated reagent at proper concentrations for three days. […] The protein concentration was determined by the Bradford method. […] The blotting signal was developed using an enhanced chemiluminescence (ECL) detection kit (PerkinElmer, Waltham, MA, USA) and was counted by the software Quantity One (Bio-Rad, Hercules, CA, USA). […]
(§2) Figure 4 Inhibitory effect of 19a on DENV-induced cyclooxygenase-2 (COX-2) expression in Huh-7 cells. […] The results are expressed as the means ± standard deviations (SD) of triplicate experiments.

DENV [2] = experiment: Exogenous COX-2 (pCMV-COX-2-Myc) overexpression rescue of DENV replication in Huh-7 cells; type: cell-based, dengue virus; details: 1 μM; pCMV-COX-2-Myc transfected Huh-7 cells
Description: as §1
Huh-7-DV-Fluc cells were seeded in 24-well plates at a density of 2 × 10^4 cells per well, and treated with the 3-arylquinoxaline compounds at two concentrations (1 and 10 μM) or 0.1% DMSO as control. […] After three days, protein and RNA levels were analyzed by Western blotting with a specific antibody as previously described respectively.
as §2

COc1ccc(-c2nc3ccccc3nc2C(O)c2ccccc2)cc1 (stereo not shown) [Compound 19a, [3-(4-Methoxyphenyl)quinoxalin-2-yl](phenyl)methanol]
DENV RNA replication (RT-qPCR) (DENV [1]): dose-dependently reduced
COX-2 mRNA level (COX-2 expression): could inhibit
COX-2 protein level (COX-2 expression): could inhibit
viral RNA level reduced by compound upon increasing exogenous COX-2-Myc expression (DENV [2]): gradually rescued
